PubChem BioAssay AID330 (DTP/NCI, 2004)
Several values for one entry are separate records, joined by “and”; a condition that tells them apart may be missing. Identical values can stand only once. Inconclusive results and toxic doses are left out.

Test system: P388 leukemia ip, CD2F1 mice, survival T/C
Assay: NCI In Vivo Anticancer Drug Screen. Data for tumor model P388 Leukemia (intraperitoneal) in CD2F1 (CDF1) mice
Details: endpoint: median survival time, higher = longer survival
In short: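 Mice carrying the transplanted tumor received test compound or vehicle. Survival was recorded in each group, and the value is the treated-group measurement divided by that of the vehicle-treated control group.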

[1] = dose: 50.0 mg/kg/injection, schedule: Q01DX009 (ip), vehicle: saline
[2] = dose: 100.0 mg/kg/injection, schedule: Q01DX009 (ip), vehicle: saline
[3] = dose: 200.0 mg/kg/injection, schedule: Q01DX009 (ip), vehicle: saline
[4] = dose: 100.0 mg/kg/injection, schedule: Q01DX001 (ip), vehicle: saline with Tween-80
[5] = dose: 200.0 mg/kg/injection, schedule: Q01DX001 (ip), vehicle: saline with Tween-80
[6] = dose: 400.0 mg/kg/injection, schedule: Q01DX001 (ip), vehicle: saline with Tween-80

`C[C@]12CC[C@H](OC(=O)Cc3ccc(N(CCCl)CCCl)cc3)CC1=CC[C@@H]1[C@@H]2CC[C@]2(C)C(=O)CC[C@@H]12` was tested, and the T/C (dose: 16.0 mg/kg/injection, schedule: Q03HX024 (ip), vehicle: saline) was 95 % of control, the T/C (dose: 32.0 mg/kg/injection, schedule: Q03HX008 (ip), vehicle: saline) was 90 % of control and the T/C (dose: 32.0 mg/kg/injection, schedule: Q03HX016 (ip), vehicle: saline) was 100 % of control. For the same molecule, the T/C (dose: 32.0 mg/kg/injection, schedule: Q03HX024 (ip), vehicle: saline) was 90 % of control, the T/C (dose: 64.0 mg/kg/injection, schedule: Q01DX009 (ip), vehicle: saline) was 100 % of control and the T/C (dose: 64.0 mg/kg/injection, schedule: Q01DX009 (sc), vehicle: saline) was 104 % of control. For the same molecule, the T/C (dose: 64.0 mg/kg/injection, schedule: Q03HX008 (ip), vehicle: saline) was 109 % of control, the T/C (dose: 64.0 mg/kg/injection, schedule: Q03HX016 (ip), vehicle: saline) was 109 % of control and the T/C (dose: 64.0 mg/kg/injection, schedule: Q03HX024 (ip), vehicle: saline) was 109 % of control. The T/C (dose: 128.0 mg/kg/injection, schedule: Q01DX009 (ip), vehicle: saline) was 95 % of control, the T/C (dose: 128.0 mg/kg/injection, schedule: Q01DX009 (sc), vehicle: saline) was 109 % of control and the T/C (dose: 128.0 mg/kg/injection, schedule: Q03HX008 (ip), vehicle: saline) was 168 % of control. The T/C (dose: 128.0 mg/kg/injection, schedule: Q03HX016 (ip), vehicle: saline) was 154 % of control, the T/C (dose: 128.0 mg/kg/injection, schedule: Q03HX024 (ip), vehicle: saline) was 100 % of control and the T/C (dose: 128.0 mg/kg/injection, schedule: Q04DX003 (ip), vehicle: saline) was 100 % of control. For the same molecule, the T/C (dose: 200.0 mg/kg/injection, schedule: Q04DX003 (ip), vehicle: saline with Tween-80) was 150 % of control, the T/C (dose: 256.0 mg/kg/injection, schedule: Q01DX001 (ip), vehicle: saline) was 100 % of control and the T/C (dose: 256.0 mg/kg/injection, schedule: Q01DX001 (sc), vehicle: saline) was 100 % of control. For the same molecule, the T/C (dose: 256.0 mg/kg/injection, schedule: Q01DX009 (oral), vehicle: saline) was 109 % of control, the T/C (dose: 256.0 mg/kg/injection, schedule: Q01DX009 (sc), vehicle: saline) was 118 % of control and the T/C (dose: 256.0 mg/kg/injection, schedule: Q03HX008 (ip), vehicle: saline) was 122 % of control. The T/C (dose: 256.0 mg/kg/injection, schedule: Q04DX003 (ip), vehicle: saline) was 100 % of control, the T/C (dose: 256.0 mg/kg/injection, schedule: Q08DX002 (ip), vehicle: saline) was 100 % of control and the T/C (dose: 264.0 mg/kg/injection, schedule: Q04DX003 (ip), vehicle: saline with Tween-80) was 179 % of control. The T/C (dose: 400.0 mg/kg/injection, schedule: Q04DX003 (ip), vehicle: saline with Tween-80) was 183 % of control and 200 % of control, the T/C (dose: 512.0 mg/kg/injection, schedule: Q01DX001 (ip), vehicle: saline) was 104 % of control and the T/C (dose: 512.0 mg/kg/injection, schedule: Q01DX001 (sc), vehicle: saline) was 104 % of control. For the same molecule, the T/C (dose: 512.0 mg/kg/injection, schedule: Q01DX009 (ip), vehicle: saline) was 150 % of control, the T/C (dose: 512.0 mg/kg/injection, schedule: Q01DX009 (oral), vehicle: saline) was 113 % of control and the T/C (dose: 512.0 mg/kg/injection, schedule: Q04DX003 (ip), vehicle: saline) was 122 % of control. The T/C (dose: 512.0 mg/kg/injection, schedule: Q08DX002 (ip), vehicle: saline) was 118 % of control, the T/C (dose: 600.0 mg/kg/injection, schedule: Q04DX003 (ip), vehicle: saline with Tween-80) was 112 % of control and the T/C (dose: 1024.0 mg/kg/injection, schedule: Q01DX001 (ip), vehicle: saline) was 118 % of control. The T/C (dose: 1024.0 mg/kg/injection, schedule: Q01DX001 (sc), vehicle: saline) was 118 % of control, the T/C (dose: 1024.0 mg/kg/injection, schedule: Q01DX009 (oral), vehicle: saline) was 109 % of control and the T/C (dose: 1024.0 mg/kg/injection, schedule: Q04DX003 (ip), vehicle: saline) was 163 % of control. The T/C (dose: 1024.0 mg/kg/injection, schedule: Q08DX002 (ip), vehicle: saline) was 159 % of control, the T/C (dose: 2048.0 mg/kg/injection, schedule: Q01DX001 (ip), vehicle: saline) was 109 % of control and the T/C (dose: 2048.0 mg/kg/injection, schedule: Q01DX009 (oral), vehicle: saline) was 118 % of control. For the same molecule, the T/C (dose: 2048.0 mg/kg/injection, schedule: Q08DX002 (ip), vehicle: saline) was 90 % of control.
In the case of `Nc1ccn(CC(=O)c2ccc(Cl)s2)c(=O)n1`, the T/C (dose: 100.0 mg/kg/injection, schedule: Q04DX003 (ip), vehicle: water) is reported as 100 % of control, the T/C (dose: 200.0 mg/kg/injection, schedule: Q04DX003 (ip), vehicle: water) is reported as 100 % of control and the T/C (dose: 400.0 mg/kg/injection, schedule: Q04DX003 (ip), vehicle: water) is reported as 104 % of control.
In the case of `O=[N+]([O-])c1ccc2nnnn2c1`, the T/C [1] is reported as 100 % of control, the T/C [2] is reported as 107 % of control and the T/C [3] is reported as 100 % of control.
For `CCC[CH2][Ge](=[O])[CH2]CCC`, the T/C [1] was 103 % of control, the T/C [2] was 102 % of control and the T/C [3] was 88 % of control.
With `COc1ccc(/C=N\N=C(/[O-])c2ccccc2O)cc1.COc1ccc(/C=N\N=C(/[O-])c2ccccc2O)cc1.[OH3+].[OH3+].[Zn+2]` the T/C (dose: 100.0 mg/kg/injection, schedule: Q04DX002 (ip), vehicle: saline with Tween-80) was 100 % of control, the T/C (dose: 200.0 mg/kg/injection, schedule: Q04DX002 (ip), vehicle: saline with Tween-80) was 98 % of control and the T/C (dose: 400.0 mg/kg/injection, schedule: Q04DX002 (ip), vehicle: saline with Tween-80) was 91 % of control.
For `CN1CCOC(N2CCOCC2)C(C)(C)C1` (stereo not given), the T/C (dose: 50.0 mg/kg/injection, schedule: Q01DX005 (ip), vehicle: saline) was 92 % of control, the T/C (dose: 100.0 mg/kg/injection, schedule: Q01DX005 (ip), vehicle: saline) was 88 % of control and the T/C (dose: 200.0 mg/kg/injection, schedule: Q01DX005 (ip), vehicle: saline) was 100 % of control.
With `COc1ccc(/C=N/Nc2nnc3c4cccnc4c4ccccc4c3n2)cc1OC` the T/C (dose: 3.12 mg/kg/injection, schedule: Q01DX001 (ip), vehicle: saline with Tween-80) was 102 % of control and 87 % of control, the T/C (dose: 6.25 mg/kg/injection, schedule: Q01DX001 (ip), vehicle: saline with Tween-80) was 100 % of control and 87 % of control and the T/C (dose: 50.0 mg/kg/injection, schedule: Q01DX001 (ip), vehicle: saline with Tween-80) was 104 % of control and 112 % of control. The T/C [4] was 100 % of control and 111 % of control, the T/C [5] was 106 % of control and 114 % of control and the T/C [6] was 107 % of control.
In the case of `CC(=O)OC1C(=C(Br)Br)C(COC(=O)c2ccccc2)OC1n1cnc2c(NC(=O)c3ccccc3)ncnc21` (stereo not given), the T/C [4] is reported as 98 % of control, the T/C [5] is reported as 90 % of control and the T/C [6] is reported as 92 % of control.
For `CC1CC(C)C(C)C(CNCC2CC(C)CC(C)C2C)C1` (stereo not given), the T/C (dose: 12.5 mg/kg/injection, schedule: Q01DX005 (ip), vehicle: saline with Tween-80) was 99 % of control, the T/C (dose: 25.0 mg/kg/injection, schedule: Q01DX005 (ip), vehicle: saline with Tween-80) was 99 % of control and the T/C (dose: 50.0 mg/kg/injection, schedule: Q01DX005 (ip), vehicle: saline with Tween-80) was 102 % of control and 97 % of control. The T/C (dose: 100.0 mg/kg/injection, schedule: Q01DX005 (ip), vehicle: saline with Tween-80) was 102 % of control.
`O=C1Sc2ccccc2Cn2cccc21` was tested, and the T/C (dose: 60.0 mg/kg/injection, schedule: Q01DX005 (ip), vehicle: saline with Tween-80) was 108 % of control, the T/C (dose: 120.0 mg/kg/injection, schedule: Q01DX005 (ip), vehicle: saline with Tween-80) was 108 % of control and the T/C (dose: 240.0 mg/kg/injection, schedule: Q01DX005 (ip), vehicle: saline with Tween-80) was 123 % of control.
With `C=C1C(=O)O[C@H]2C[C@@H]1C(=O)C/C(C)=C/CC/C(C)=C/CC[C@@]2(C)OCSC` the T/C (dose: 8.0 mg/kg/injection, schedule: Q01DX009 (ip), vehicle: Klucel (hydroxypropylcellulose) (HPC)) was 116 % of control, the T/C (dose: 16.0 mg/kg/injection, schedule: Q01DX009 (ip), vehicle: Klucel (hydroxypropylcellulose) (HPC)) was 103 % of control and the T/C (dose: 32.0 mg/kg/injection, schedule: Q01DX009 (ip), vehicle: Klucel (hydroxypropylcellulose) (HPC)) was 111 % of control. The T/C (dose: 64.0 mg/kg/injection, schedule: Q01DX009 (ip), vehicle: Klucel (hydroxypropylcellulose) (HPC)) was 92 % of control.
